Test results: ChEMBL document CHEMBL1121629, “1-(Aminoalkyl)-6-aryl-4-H-s-triazolo[4,3-a][1,4]benzodiazepines with antianxiety and antidepressant activity” (1980)

Key:
Type in all cases: functional
Mus musculus [1] = species: Mus musculus; experiment: Tested for antagonism of pentylenetetrazole-induced clonic convulsions (P) in mice
Mus musculus [2] = species: Mus musculus; experiment: Tested for potentiation of gamma-butyrolactone induced sleep (gamma-B) in mice
Mus musculus [3] = species: Mus musculus; experiment: Tested for antagonism of oxotremorine hypothermia (OX) in mice
Mus musculus [4] = species: Mus musculus; experiment: Tested for antagonism of bicuculline-induced tonic-extensor convulsions (B) in mice
Mus musculus [5] = species: Mus musculus; experiment: Tested for stereotyped gnawing and licking behavior of mice pretreated with apomorphine (AG)
Mus musculus [6] = species: Mus musculus; experiment: Tested for potentiation of yohimbine toxicity in aggregated mice(Y)
Mus musculus [7] = species: Mus musculus; experiment: Tested for antagonism of nicotine-induced tonic extensor convulsions (TE) in mice
Mus musculus [8] = species: Mus musculus; experiment: Prolongation of hypoxic survival time (HS) in mice
Mus musculus [9] = species: Mus musculus; experiment: Tested for antagonism of nicotine-induced death (D) in mice

SMILES	ED50 (Mus musculus [1]) [mg/kg]	ED50 (Mus musculus [2]) [mg/kg]	ED50 (Mus musculus [3]) [mg/kg]	ED50 (Mus musculus [4]) [mg/kg]	ED50 (Mus musculus [5]) [mg/kg]	ED50 (Mus musculus [6]) [mg/kg]	ED50 (Mus musculus [7]) [mg/kg]	ED50 (Mus musculus [8]) [mg/kg]	ED50 (Mus musculus [9]) [mg/kg]
C=CCN(C)Cc1nnc2n1-c1ccc(Cl)cc1C(c1ccccc1)=NC2	4.4	1.6	> 50	3.7	> 50	> 50	1.1	> 50	1.1
CC(N)Cc1nnc2n1-c1ccccc1C(c1ccccc1)=NC2 (configuration not stated)	> 50	> 50	> 50	> 50	> 50	40	–	> 50	–
CCN(CC)CCCc1nnc2n1-c1ccc(Cl)cc1C(c1ccccc1)=NC2	> 100	> 100	31.6	> 100	100	56	11	> 50	13
CC(N)Cc1nnc2n1-c1ccc(Br)cc1C(c1ccccn1)=NC2 (configuration not stated)	> 50	40	> 50	> 50	20	7	–	> 50	–
CN(C)Cc1nnc2cc(-c3ccccc3)c3cc(Cl)ccc3n12	> 50	> 50	> 50	> 50	> 50	–	89	–	89
CN(C)Cc1nnc2n1-c1ccccc1C(c1ccccc1)=NC2	6.2	6.2	12.5	50	3.1	35.4	2.5	> 50	2.8
C#CCNCc1nnc2n1-c1ccc(Cl)cc1C(c1ccccc1)=NC2	3.1	0.7	> 50	1.6	> 50	21	1.4	30	1.4
NCc1nnc2n1-c1ccc(Cl)cc1C(c1ccccc1)=NC2	0.35	0.8	29.7	14.9	2.6	35.4	0.22	0.8	0.28
Clc1ccc2c(c1)C(c1ccccc1)=NCc1nnc(CCCN3CCOCC3)n1-2	10	10	> 50	7.1	> 50	> 50	5.6	7	5.6
CN(C)CCCN1c2ccccc2CCc2ccccc21 [IMIPRAMINE]	–	–	1.3	21	0.9	–	7	> 50	7
Clc1ccc2c(c1)C(c1ccccc1)=NCc1nnc(CN3CCN(c4ccccc4)CC3)n1-2	> 30	> 30	> 30	> 30	> 30	> 30	159	> 50	159
CN(C)CCc1nnc2n1-c1ccc(Cl)cc1C(c1ccccc1Cl)=NC2	0.3	0.4	> 50	0.5	6.3	29.7	0.28	1.3	0.28
CN(Cc1nnc2n1-c1ccc(Cl)cc1C(c1ccccc1)=NC2)CC1CC1	3.1	1.1	> 50	2.6	> 50	> 50	0.4	30	0.6
NOCc1nnc2n1-c1ccc(Cl)cc1C(c1ccccc1)=NC2	0.2	0.84	12.5	0.2	42	> 50	0.1	0.7	0.08
NCCc1nnc2n1-c1ccc(Br)cc1C(c1ccccn1)=NC2	> 50	30	30	> 50	> 50	30	–	> 50	–
Clc1ccc2c(c1)C(c1ccccc1)=NCc1nnc(CN3CCCC3)n1-2	17.7	7.4	56	12.5	14.9	100	3.6	2	4.5
C#CCN(C)Cc1nnc2n1-c1ccccc1C(c1ccccc1Cl)=NC2	2	8	> 50	2	> 50	> 50	–	3	–
CN(C)CCCc1nnc2n1-c1ccc(Cl)cc1C(c1ccccc1)=NC2	13.3	36.6	75	56	42	> 100	10	> 50	10
NCCc1nnc2n1-c1ccccc1C(c1ccccc1Cl)=NC2	> 50	20	> 50	> 50	> 50	> 50	–	20	–
CN(C)CCc1nnc2n1-c1ccc(Br)cc1C(c1ccccc1)=NC2	5	5	0.9	7	> 50	3	–	5	–

SMILES	ED50 (Mus musculus [1]) [mg/kg]	ED50 (Mus musculus [2]) [mg/kg]	ED50 (Mus musculus [3]) [mg/kg]	ED50 (Mus musculus [4]) [mg/kg]	ED50 (Mus musculus [5]) [mg/kg]	ED50 (Mus musculus [6]) [mg/kg]	ED50 (Mus musculus [7]) [mg/kg]	ED50 (Mus musculus [8]) [mg/kg]	ED50 (Mus musculus [9]) [mg/kg]
CN(C)Cc1nnc2n1-c1ccccc1C(c1ccccc1Cl)=NC2	10	> 10	> 30	17.8	> 30	> 30	0.13	0.5	–
NCCc1nnc2n1-c1ccc(Br)cc1C(c1ccccc1)=NC2	> 50	30	7	20	> 50	20	–	> 50	–
CN(C)Cc1nnc2n1-c1ccc(Cl)cc1/C(c1ccccc1)=N\CC2	> 50	15	> 50	> 50	> 50	> 50	> 100	–	–
NCCc1nnc2n1-c1ccccc1C(c1ccccc1)=NC2	> 50	> 50	40	> 50	30	30	–	> 50	–
Clc1ccc2c(c1)C(c1ccccc1)=NCc1nnc(CCCN3CCN(c4ccccc4)CC3)n1-2	> 50	10	–	> 50	–	–	89	> 50	79
CN(C)CCc1nnc2n1-c1ccccc1C(c1ccccc1Cl)=NC2	5	> 50	> 50	> 50	> 50	30	–	7	–
CN(C)OCc1nnc2n1-c1ccc(Cl)cc1C(c1ccccc1)=NC2	0.2	0.1	> 50	0.2	> 50	> 50	–	> 0.2	–
CN(C)CCc1nnc2n1-c1ccccc1C(c1ccccc1)=NC2	> 50	30	10	> 50	20	40	–	> 50	–
CC(N)c1nnc2n1-c1ccccc1C(c1ccccc1Cl)=NC2 (configuration not stated)	0.2	3	> 50	0.4	> 50	> 50	–	0.2	–
CN(C)CCCc1nnc2n1-c1ccc(Cl)cc1C(c1ccccc1Cl)=NC2	2.2	0.2	25	2.6	> 50	25	–	2.2	–
CC(N)Cc1nnc2n1-c1ccc(Cl)cc1C(c1ccccc1Cl)=NC2 (configuration not stated)	10.5	3.7	17.7	7.4	> 50	> 50	–	25	–
CCN(CC)Cc1nnc2n1-c1ccc(Cl)cc1C(c1ccccc1)=NC2	3.1	0.6	–	2.6	–	–	0.08	> 50	0.08
C[N+](C)([O-])Cc1nnc2n1-c1ccc(Cl)cc1C(c1ccccc1)=NC2	0.3	0.6	5.3	0.8	> 50	> 50	–	5.3	–
CN(C)Cc1nnc2n1-c1ccc(Br)cc1C(c1ccccc1)=NC2	0.7	0.1	7.4	0.8	> 50	35.4	–	0.8	–
CN(C)CCc1nnc2n1-c1ccc(Br)cc1C(c1ccccn1)=NC2	20	10	4	> 50	9	4	–	> 50	–
CSc1ccc2c(c1)C(c1ccccc1)=NCc1nnc(CN(C)C)n1-2	9	10	10	10	> 50	40	–	> 50	–
CN(C)CCc1nnc2cc(-c3ccccc3)c3cc(Cl)ccc3n12	> 50	> 50	> 50	> 50	> 50	40	–	–	–
CN(C)Cc1nnc2n1-c1ccc(Cl)cc1C(c1ccccc1)=NC2 [ADINAZOLAM]	0.9	1.6	–	0.7	–	–	–	5	0.13
CC(N)Cc1nnc2n1-c1ccccc1C(c1ccccc1Cl)=NC2 (configuration not stated)	> 50	> 50	> 50	> 50	> 50	20	–	10	–
